Reference: patent US9618513B2, “Compositions and methods for detecting and treating colorectal cancer” (The Regents of the University of Michigan, priority 2014, dated 2017)

How the values were obtained:
[1] = test system: STAT3 occupancy on gene promoters; assay: STAT3-ChIP assay; format: cell-based, human
Description: (A) IL-22 induced STAT3 phosphorylation. Colon cancer cells were treated with IL-22 for different time points. The protein levels of phosphorylated STAT3 and STAT3 were detected by Western blotting. (B, C) IL-22 induced colon cancer spheres via STAT3. Sphere assay was performed with shSTAT3 colon cancer cells in the presence of IL-22. Results were shown as sphere images (b) and the mean numbers of spheres in triplicate (c). (n=5. P<0.01). (D-F) IL-22 stimulated colon cancer sternness gene expression via STAT3. Colon cancer cells expressing shSTAT3 or scrambled vector were cultured with IL-22. Stem cell core gene mRNAs were detected by real-time PCR after 6 hours (n=5, *P<0.05). (G, H) IL-22 causes STAT3 occupancy on SOX2 promoter areas. STAT3-ChIP assay was performed in DLD-1 cells cultured with or without IL-22. One of at least three experiments is shown.
(A-C)IL-22 increases STAT3 occupancy on the DOT1L (A), AFF4 (B), and MLLT3 (C) proximal promoter. STAT3-ChIP assay was performed in DLD-1 colon cancer cells cultured with or without IL-22. One of three experiments is shown. (D-F) STAT3 knock down reduces H3K79me2 occupancy at proximal promoters of core stem cell genes. H3K79me2-ChIP was performed in colon cancer cells cultured with IL-22 for 24 hours. One of three experiments is shown.
A. The protein level of phosphorylated STAT3, STAT1 and STATS were activated by IL-22. B. The effect of STAT3 knock down. C. The effect of IL-22 on cell proliferation was analyzed using H^3 Thymidine Incorporation in Stat3 knock down cells. D. Knock down of STAT3 reduced the expression of EZH2 and SUZ12. E. Based on the ENCODE STAT3-ChIP-Seq data base, STAT3 occupancy on the promoter areas of SUZ12 and EED is shown. F. SUZ12/EED DNA was detected by ChIP assay using an antibody against STAT3, c-fos was used as a positive control.
ChIP assay was performed according to the protocol with exceptions stated below (Upstate, Millipore; http://www. (followed by) millipore.com/techpublications/tech1/mcproto407). Crosslinking was performed with 1% formaldehyde or 1% paraformaldehyde for 10 minutes. […]

[2] = test system: cyclin-dependent kinase inhibitors, cyclins and CDK4 in DLD-1; assay: Cell cycle gene expression by real-time PCR; format: cell-based, human
Description: A. GSEA analysis identifies proliferation pathways have positive correlation with IL-22. B. Cell proliferation maker Ki67 was detected by FACS. C. H^3 Thymidine Incorporation was used to detect the function of IL-22 in cell proliferation. D. Cell number was counted after stimulated with IL-22. E. Cells isolated from colon cancer tissue (Tumor cells and Leukocytes) were stimulated with a-CD3 and […] for 3 days, and supernatant mixed with or without anti-IL-22 antibody was co-cultured with DLD1 cells for 24 h to test cell proliferation. F. Cell cyclin-dependent kinase and kinase inhibitors were analyzed by Real-Time PCR.
The identification of target genes for IL-22 is essential for the determination of the mechanism by which it promotes proliferation in colon cancer cells. As such, the relative mRNA levels in DLD-1 colon cancer cell line was examined by real time quantitative PCR. As expected, IL-22 reduced the expression of the cyclin-dependent kinase inhibitors: p16 (CDKN2A), p18 (CDKN2C), p19 (CDKN2D), p21 (CDKN1A), p27 (CDKN1B), p53 and p57 (CDKN1C).
The mRNAs were quantified by real-time RT-PCR. SYBR Green Master Mix was used to detect fluorescence. Relative expression was calculated according to the Ct value with normalization to GAPDH.

IL-22: recombinant IL-22 (R&D systems), cytokine interleukin-22
recruitment of STAT3 to the SUZ12 and EED promoter ([1]; ChIP realtime PCR): significantly increased
STAT3 binding on the SOX2 promoter area ([1]; DLD-1 with or without IL-22): increased
STAT3 binding to the DOT1L, AFF4 and MLLT3 promoter ([1]; DLD-1 with or without IL-22): increased
mRNA levels of cyclin A1, D1, D3, E1, E2 and CDK4 ([2]; DLD-1): increased
expression of cyclin-dependent kinase inhibitors p16, p18, p19, p21, p27, p53 and p57 ([2]; DLD-1, mRNA): reduced
